From article PMC8639922, “KSHV transactivator-derived small peptide traps coactivators to attenuate MYC and inhibits leukemia and lymphoma cell growth” (Communications Biology, 2021)
Square brackets hold non-standard residues; d marks the D form. Peptide text beside a SMILES is read from it. Orn = NCCC[C@H](N)C(=O)O; βAla = NCCC(=O)O

Test system: BC-1 cells
Experiment: MTT assay, deletion and mutant peptides
Assay type: cell-based, human
Settings: BC-1, 64 μM
From the text: Fig. 2 Viral and cellular responses to K-Rta peptide; identification of VGN50. a Protein sequence alignment. Homologous protein sequences were searched for with BLAST and extracted from other gamma-herpesviral homologs. The consensus protein sequence is depicted at the bottom of table. b Peptide design. Deletion peptides were designed based on the consensus sequence in a. The TAT protein sequence was used as a cell-penetrating peptide (CPP) and placed downstream from the K-Rta protein sequence. (d-R) D amino acid arginine, (ORN) ornithine, (bAla) beta alanine. c Sub cellular peptide localization. Cy5-labeled peptide 1 was used to track subcellular localization. Nuclei were visualized by DAPI staining. The scale is indicated in the panel. d MTT assays with deletion and mutant peptides. Peptide listed in b were incubated with BC-1 cells and MTT conversion was measured 48 h after incubation. The OD of mock-treated samples were set as 100%, and OD from detergent-treated cells were set as 0%. The amount of each peptide used for incubation is depicted along the x-axis. Mean percentage viability ±SD were calculated for each treatment group (n = 3 samples). Peptide 1 was renamed as VGN50. e Flow cytometry analyses of cell proliferation and apoptosis induction. Cells were incubated with VGN50 or mutant peptide (three alanine substitutions) for 24 h followed by measurements of percentage cell proliferation (Ki67 staining) and apoptosis induction (Annexin V staining). Standard deviation bars are included. (n = 3) Two-way Anova, followed by Sidak’s multiple comparisons test. f The effect of VGN50 on various cancer cell types. MTT assays were performed with the indicated cell lines treated with various VGN50 concentrations. The OD of mock-treated samples were set as 100%, and OD from detergent-treated cells were set as 0%. Mean percentage viability ±SD was calculated for each treatment (n = 3 samples/treatment). g Viability assay with flow cytometry. Cell viability was measured in triplicate with live/dead staining and the cell killing effects on cancer cells was compared with normal peripheral blood mononuclear cells (PBMC) from three healthy donors. Results are presented as mean percentage viability ±SD (n = 3 samples/group). f, g Ordinary one-way Anova, followed by Tukey’s multiple comparisons test. […]
Leukoreduction system chambers (LRS) from healthy donors were purchased from Vitalant. […] Cell death, apoptosis, and proliferation were analyzed by flow cytometry (BD Acuri) after intracellular staining with anti-humanKi67-Alexa488 (Biolegend, 1:100) along with the isotype control antibody, annexin-V-FITC with 7-AAD staining (Biolegend) according to the manufacture’s protocol, Live/dead Fixable Red Dead Cell staining kit (Invitrogen) according to the manufacture’s protocol, or MTT assay. […]

## CC(C)C[C@H](NC(=O)CCNC(=O)[C@H](CCCNC(=N)N)NC(=O)[C@H](CCCNC(=N)N)NC(=O)[C@H](CCCNC(=N)N)NC(=O)[C@H](CCCN)NC(=O)[C@H](CCCNC(=N)N)NC(=O)[C@H](CCCNC(=N)N)NC(=O)[C@H](CCCCN)NC(=O)[C@H](CCCCN)NC(=O)[C@H](N)CCCNC(=N)N)C(=O)N[C@@H](CO)C(=O)N[C@@H](CO)C(=O)N[C@@H](C)C(=O)N[C@@H](C)C(=O)N[C@@H](C)C(=O)NCC(=O)N[C@@H](CC(C)C)C(=O)N[C@@H](Cc1ccc(O)cc1)C(=O)N[C@@H](CCC(N)=O)C(=O)N[C@@H](CC(C)C)C(=O)N[C@@H](CC(=O)O)C(=O)N[C@H](C(=O)O)[C@@H](C)O [Mt-P] (H-[dR]KKRR[Orn]RRR[βAla]LSSAAAGLYQLDT-OH; N-terminus and C-terminus assumed)
  Reduction of cell viability (MTT) compared to untreated control: 20%
